For three compounds, inhibition results are on record in patent US9040519B2, “Fused tetracyclic pyrido [4,3-B] indole and pyrido [3,4-B] indole derivatives and methods of use” (Medivation Technologies, Inc., priority 2010, dated 2015).

The target of the assay is T1, human recombinant serotonin (5-Hydroxytryptamine) 5-HT5A receptor (Homo sapiens, UniProt P47898).
T1 construct: expressed in transfected cells; host or cells: CHO-K1
T1 sequence (P47898 whole entry): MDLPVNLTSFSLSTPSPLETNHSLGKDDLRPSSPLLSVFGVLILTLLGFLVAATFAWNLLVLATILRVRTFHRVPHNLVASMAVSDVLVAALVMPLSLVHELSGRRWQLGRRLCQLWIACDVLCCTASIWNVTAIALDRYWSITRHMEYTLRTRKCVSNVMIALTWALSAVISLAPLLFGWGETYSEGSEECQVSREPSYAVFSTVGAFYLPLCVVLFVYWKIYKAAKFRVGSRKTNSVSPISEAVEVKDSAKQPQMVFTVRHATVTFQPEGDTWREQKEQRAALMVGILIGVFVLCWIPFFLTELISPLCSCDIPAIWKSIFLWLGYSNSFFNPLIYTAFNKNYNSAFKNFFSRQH
The assay is described as follows: Serotonin 5-HT5A radioligand binding ([3H]LSD). To be noted: compound at 0.1 μM; CHO K1 cells; read-out: Percentage inhibition of ligand binding, Serotonin 5-HT5A. The procedure:
To evaluate in radioligand binding assays the activity of compounds of the invention, human recombinant serotonin (5-Hydroxytryptamine) 5-HT5A receptor expressed in Chinese hamster ovary (CHO) K1 cells (Rees, S. et al, FEBS Lett. 355:242, 1994) in a modified Tris-HCl buffer (50 mM Tris-HCl, pH 7.4, 10 mM MgCl2, 0.5 mM EDTA) was used. Compounds of the invention were incubated with 1.7 nM [^3H]Lysergic acid diethylamide (LSD) for 60 min at 37° C. Non-specific binding was estimated in the presence of 100 μM Serotonin (5-HT). Receptor proteins were filtered and washed, the filters were counted to determine [^3H]LSD specifically bound. Compounds were screened at 1 μM or lower, using 1% DMSO as vehicle. Biochemical assay results are presented as the percent inhibition of specific binding in Table 4.
For orientation: inhibition means the drop in the measured response relative to a control, in per cent. For `Cc1ccc2c(c1)c1c3n2C(c2ccccc2)=CCC3(C)CN(C)C1` (stereo not drawn) [Compound 10, 2,3a,10-trimethyl-6-phenyl-2,3,3a,4-tetrahydro-1H-indolo[3,2,1-ij][1,6]naphthyridine], the inhibition at 0.1 µM is -8%.
With `Cc1ccc2c(c1)c1c3n2CC(c2ccncc2)=CCC3(C)CN(C)C1` (stereo not drawn) [Compound 11, 2,3a,10-trimethyl-6-pyridin-4-yl-1,2,3,3a,4,7-hexahydro-2,7a-diaza-cyclohepta[jk]fluorene], the inhibition at 0.1 µM stood at 9%.
Next, `Cc1ccc2c(c1)c1c3n2C(c2ccccc2)CCC3(C)CN(C)C1` (stereo not drawn) [Compound 12, 2,3a,10-trimethyl-6-phenyl-2,3,3a,4,5,6-hexahydro-1H-indolo[3,2,1-ij][1,6]naphthyridine]: -21%.
